Laboratory results published in publication PMC10517462, “Small molecule targeting of the p38/Mk2 stress signaling pathways to improve cancer treatment” (BMC Cancer, 2023).

How the values were obtained:
[1] = tested on: SW620 colorectal cancer cell line; test: CCK8 cell viability assay, SW620; assay type: cell-based, human; details: MK2.III 1 µM or etoposide 150 µM alone, 24 h
Experimental: To assess the effect of MK2.III kinase inhibitor and the etoposide (VP-16) on the viability of different cancer cell lines, cells were seeded in 96-well plates in a concentration of 5000 cells per well. After 12 h, etoposide and 1 μM MK2.III diluted in culture media were added into the wells for 24 h. NCI-H69 cells were exposed to a series of etoposide concentrations from 20 μM to 150 μM. MDA-MB-231, SW 620, and SW 480 cell lines were incubated with 150 μM etoposide. After treatment, 10 μL of the CCK-8 reagent (96992, Sigma) was added to each well for 1 h followed by optical density measurement at 450 nm using hybrid plate reader Synergy H1.

[2] = Pharmacokinetics of MK2.III in CD-1 mice (HPLC-MS/MS); assay type: in vivo, CD-1 mouse
Experimental: We investigated the pharmacokinetics (PK) and bioavailability of small molecules (MK2.III) with intraperitoneal and intravenous injection before studying its tumor suppressor properties in combination with DNA-damaging agents. For this set of experiments CD-1 mouse line (male,7 weeks, body weight of 23–25 g, n = 198, Charles River) was used with a one-time intraperitoneal injection (IP) of 2, 10, and 50 mg/kg doses of the MK2.III or 2 mg/kg intravenous injection (IV) of the same drug. The small molecule was prepared using PBS containing 10% DMSO. MK2.III was isolated from mouse serum using protein settling method with acetonitrile and drug concentrations were detected using HPLC – MS/MS.
Blood samples were obtained from the retro-orbital sinus (at […] for IV groups; at […] for IP groups, respectively) in polypropylene tubes containing 20 μl of 5% EDTA. Blood plasma was separated by centrifugation at 1500 g for 10 min and was stored at -80 °C until analysis. Data were obtained from six animals per time.
An Agilent 1260 Infinity system, a hybrid triple-quadrupole mass spectrometer, and QTRAP 5500 electrospray ionization were used for determining the MK2.III concentration in blood plasma. Separations were achieved using a YMC Triart C18 50 × 2,1 mm, 1,9 μm column. The mobile phase consisted of A (0.1% aqueous formic acid) and B (0.1% formic acid in acetonitrile). The gradient elution t = 0, A:B 95:5; t = 2 min A:B 5:95; t = 2.1 A:B 5:95; t = 2.2 A:B 95:5; t = 2.8 A:B 95:5; flow rate was 0.5 mL min − 1; Retention time—2.8 min. The injection volume was 2 μL. The temperature of the column was set at 40 °C. Tolbutamide was selected as an internal standard. Thawed plasma (45 μL) was transferred to a microtube (1.1 mL volume), treated with a standard solution (5 μL) of the analytes in acetonitrile: water (1:1), stirred on a vortex mixer for 10 s, treated with tolbutamide solution (200 ng/ml), stirred again on the vortex mixer for 10 s, and then proteins were precipitated in the cold at + 4 °C for 15 min, centrifuged for 10 min at 1500 g. The supernatant (150 µl) was transferred to a clean 96-well plate for HPLC–MS/MS analysis. Samples were stored at a temperature not exceeding -70 °C until analysis. The calculation of pharmacokinetic parameters was performed by using Phoenix® WinNonlin® software, version 6.3 (Pharsight Corp., Cary, NC, USA).

NCI-H69 cells = test: FACS-based cell cycle analysis; set-up: species or system human; details: single treatment, increasing dose
Experimental: The cells were grown in 12 well plates (Scientific Laboratory Supplies Limited, UK) in RPMI 1640 (Gibco, UK) supplemented with 10% FBS (Autogen Bioclear, UK) and 10,000 U/ml penicillin and 10 mg/ml streptomycin (Sigma, UK) at 37 °C under 5% CO2 and treated with 10, 20, 50, 100 and 150 µM of DNA damaging agent etoposide (VP-16) (Sigma, UK) in the presence or absence of p38MAPK inhibitor SB203580 (Tocris Chemical Co., UK) or MK2 inhibitor MK2.III (Merck, UK) in concentrations of 0, 0.3125, 0.625, 1.25, 2.5, and 5.0 µM. Etoposide, SB203580 and MK2.III were all dissolved in 0.2% of DMSO before use. Cells treated only with the carrier molecule DMSO (0.2%) served as a control.
Viability analysis was performed by staining with the […], stoichiometric DNA stain DRAQ7 (640 or 633 nm excitation and 670 nm emission; Biostatus Limited). After 48-h treatment with DNA damaging agents and/or inhibitors, cells were washed once with RPMI 1640 and resuspended in 1 ml culture media at a concentration of less than 5 × 10^5/ ml. Cells were stained with 20 µM of DRAQ7 and incubated at 37 °C for 10 min before FACS Calibur cytometer analysis. Fluorescent signals were amplified using linear mode. Cell cycle analysis was performed either by staining DRAQ7 or Propidium Iodide (PI). Cells were stained with 20 µM of DRAQ7 and incubated at 37 °C for 10 min before analysis on a FACSCalibur cytometer. […]

[3] = 2 mg/kg intraperitoneal, mice serum
[4] = 10 mg/kg intraperitoneal, mice serum
[5] = 50 mg/kg intraperitoneal, mice serum

AUClast [2, 3]: 1,99 hr*ng/ml
Cmax [2, 3]: 2,15 ng/ml
MRTlast [2, 3]: 1,28 hr
Tmax [2, 3]: 2 h
Highest concentration of the drug in serum ([2]; 2 mg/kg intravenous, at the time of the injection): 11 ng/mL
Serum concentration ([2]; 2 mg/kg intravenous, one-hour interval): 2.15 ng/mL
AUCinf [2, 4]: 203 ng·h/mL
AUClast [2, 4]: 130 ng·h/mL
Cl/F [2, 4]: 821 mL/min/kg
Cmax [2, 4]: 38,3 ng/ml
Kel [2, 4]: 0,05 1/hr
MRTinf [2, 4]: 21,7 hr
MRTlast [2, 4]: 8,59 hr
T1/2 [2, 4]: 14,4 hr
Tmax [2, 4]: 0,5 hr
Vz/F [2, 4]: 1027 L/kg
AUCinf [2, 5]: 548 ng·h/mL
AUClast [2, 5]: 227 ng·h/mL
Cl/F [2, 5]: 1520 mL/min/kg
Cmax [2, 5]: 42,4 ng/ml
Kel [2, 5]: 0,02 1/hr
MRTinf [2, 5]: 42,3 hr
MRTlast [2, 5]: 10,3 hr
T1/2 [2, 5]: 28,3 hr
Tmax [2, 5]: 0,5 hr
Vz/F [2, 5]: 3718 L/kg
Cmax ([2]; higher doses (10 and 50 mg/kg) intraperitoneal, within 30 min after injection): around 40 ng/ml
Linearity of pharmacokinetics ([2]; range of 2-50 mg/kg dose, intraperitoneal): does not represent linearity
SMILES: O=C1NCCc2[nH]c(-c3ccnc(-c4cnc5ccccc5c4)c3)cc21 [MK2.III]
Decrease of viability by single agent [1]: 30%
Effect on cell cycle profile, single agent (NCI-H69 cells): little effect on the cell cycle profile
